# Reference: ChEMBL document CHEMBL1201862, “PubChem BioAssay data set” (2004)
# Activity calls are given as the source filed them.
# Assays:
# [1] = target: T1, Heat shock factor protein 1 (Mus musculus, UniProt P38532); test: HSF1 potentiators in luciferase reporter cells, confirmation, cell-based, NIH3T3, luminescence, dose retest (AID 435004); type: functional;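 further: stress induced by proteasome inhibitor MG132 added 30 min after compound; luciferase reporter driven by HSF1 response element in NIH3T3 cells; actives raise luminescence as potentiators of the MG132 stress response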
# T1 sequence (P38532 whole entry): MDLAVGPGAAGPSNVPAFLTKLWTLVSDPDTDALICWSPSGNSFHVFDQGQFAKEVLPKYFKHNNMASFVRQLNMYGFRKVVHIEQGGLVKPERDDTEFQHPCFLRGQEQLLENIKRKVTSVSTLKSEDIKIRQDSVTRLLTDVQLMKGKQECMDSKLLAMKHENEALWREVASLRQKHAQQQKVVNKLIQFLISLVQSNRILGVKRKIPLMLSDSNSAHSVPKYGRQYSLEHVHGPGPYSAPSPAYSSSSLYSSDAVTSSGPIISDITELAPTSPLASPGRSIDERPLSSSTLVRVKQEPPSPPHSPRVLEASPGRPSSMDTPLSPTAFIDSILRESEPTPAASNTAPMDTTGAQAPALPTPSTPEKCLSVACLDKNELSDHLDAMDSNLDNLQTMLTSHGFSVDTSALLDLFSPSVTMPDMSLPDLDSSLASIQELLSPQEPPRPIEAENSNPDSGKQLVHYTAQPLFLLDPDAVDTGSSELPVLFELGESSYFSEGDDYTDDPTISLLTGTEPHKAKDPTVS
# [2] = target: DNA repair and recombination protein RAD54-like (Homo sapiens, UniProt Q92698); test: inhibitors of human RAD54 branch migration, confirmation, biochemical, fluorescence, cherry-picked samples, dose series (AID 651657); type: functional
# Chain of DNA repair and recombination protein RAD54-like (Q92698 whole entry): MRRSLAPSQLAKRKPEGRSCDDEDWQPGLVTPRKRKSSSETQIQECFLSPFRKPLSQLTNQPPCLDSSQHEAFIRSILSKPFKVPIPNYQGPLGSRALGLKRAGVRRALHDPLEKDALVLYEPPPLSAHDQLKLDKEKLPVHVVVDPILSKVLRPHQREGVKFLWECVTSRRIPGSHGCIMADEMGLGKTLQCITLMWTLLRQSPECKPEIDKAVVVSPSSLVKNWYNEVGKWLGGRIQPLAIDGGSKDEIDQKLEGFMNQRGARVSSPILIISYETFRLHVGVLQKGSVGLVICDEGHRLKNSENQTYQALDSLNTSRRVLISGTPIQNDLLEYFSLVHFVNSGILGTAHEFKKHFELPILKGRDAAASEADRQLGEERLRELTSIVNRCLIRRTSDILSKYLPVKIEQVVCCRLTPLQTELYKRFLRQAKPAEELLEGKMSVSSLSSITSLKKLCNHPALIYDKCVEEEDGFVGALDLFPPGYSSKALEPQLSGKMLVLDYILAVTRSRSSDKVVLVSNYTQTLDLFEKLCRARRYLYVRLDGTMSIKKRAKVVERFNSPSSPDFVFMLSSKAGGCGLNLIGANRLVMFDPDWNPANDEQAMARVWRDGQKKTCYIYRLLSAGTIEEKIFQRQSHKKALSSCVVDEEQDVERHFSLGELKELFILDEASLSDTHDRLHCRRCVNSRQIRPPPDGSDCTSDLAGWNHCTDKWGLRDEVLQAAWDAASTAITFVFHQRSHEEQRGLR
# Hexokinase-1 = target: T2, Hexokinase-1 (Homo sapiens, UniProt P19367); test: hexokinase 1 activators, dose response, selectivity assay for HKDC1 activator project, biochemical (AID 504762); type: functional
# T2 sequence (P19367 whole entry): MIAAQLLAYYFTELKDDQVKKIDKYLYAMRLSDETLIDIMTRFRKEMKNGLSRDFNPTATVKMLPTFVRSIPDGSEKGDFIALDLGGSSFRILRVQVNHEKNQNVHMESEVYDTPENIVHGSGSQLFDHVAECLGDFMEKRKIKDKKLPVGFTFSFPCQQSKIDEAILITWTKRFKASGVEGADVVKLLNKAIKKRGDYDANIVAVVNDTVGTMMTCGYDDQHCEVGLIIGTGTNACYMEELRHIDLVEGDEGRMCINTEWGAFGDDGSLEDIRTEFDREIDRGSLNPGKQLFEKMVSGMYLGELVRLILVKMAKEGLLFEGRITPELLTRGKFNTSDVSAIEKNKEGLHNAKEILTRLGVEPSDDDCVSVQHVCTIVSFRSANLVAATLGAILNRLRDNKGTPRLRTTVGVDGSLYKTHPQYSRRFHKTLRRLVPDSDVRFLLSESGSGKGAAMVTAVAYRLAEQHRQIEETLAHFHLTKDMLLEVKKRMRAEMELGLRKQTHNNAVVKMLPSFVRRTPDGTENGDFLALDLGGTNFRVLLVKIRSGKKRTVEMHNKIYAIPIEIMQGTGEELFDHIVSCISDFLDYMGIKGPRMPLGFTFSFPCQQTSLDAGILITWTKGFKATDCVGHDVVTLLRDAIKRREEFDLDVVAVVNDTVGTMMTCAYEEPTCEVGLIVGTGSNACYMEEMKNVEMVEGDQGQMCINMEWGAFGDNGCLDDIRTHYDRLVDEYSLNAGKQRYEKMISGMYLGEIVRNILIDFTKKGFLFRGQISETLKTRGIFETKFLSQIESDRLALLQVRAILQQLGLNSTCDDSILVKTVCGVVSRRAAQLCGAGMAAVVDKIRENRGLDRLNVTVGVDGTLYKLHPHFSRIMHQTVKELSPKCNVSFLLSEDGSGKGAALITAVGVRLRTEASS
# [3] = target: Tyrosine-protein phosphatase non-receptor type 11 (Homo sapiens, UniProt Q06124); test: SHP2 phosphatase inhibition, dose response, selectivity assay for STEP inhibitor project, biochemical (AID 602367); type: functional; settings: read-out: IC50_Mean
# Chain of Tyrosine-protein phosphatase non-receptor type 11 (Q06124 whole entry): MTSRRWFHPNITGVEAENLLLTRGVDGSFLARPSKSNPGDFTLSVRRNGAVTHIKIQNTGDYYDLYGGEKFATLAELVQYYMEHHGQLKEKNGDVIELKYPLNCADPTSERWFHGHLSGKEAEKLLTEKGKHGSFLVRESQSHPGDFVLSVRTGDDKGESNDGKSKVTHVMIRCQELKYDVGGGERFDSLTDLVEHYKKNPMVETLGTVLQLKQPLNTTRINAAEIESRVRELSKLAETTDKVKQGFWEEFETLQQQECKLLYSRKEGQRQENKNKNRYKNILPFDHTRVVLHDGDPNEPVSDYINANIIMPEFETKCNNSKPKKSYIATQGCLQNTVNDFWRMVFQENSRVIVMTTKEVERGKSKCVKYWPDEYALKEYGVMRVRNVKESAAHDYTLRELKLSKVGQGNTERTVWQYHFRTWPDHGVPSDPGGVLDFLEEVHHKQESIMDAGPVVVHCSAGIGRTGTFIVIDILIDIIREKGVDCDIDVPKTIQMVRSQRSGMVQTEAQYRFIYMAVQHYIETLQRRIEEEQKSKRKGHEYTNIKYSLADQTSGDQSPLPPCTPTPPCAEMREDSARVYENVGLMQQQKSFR
# [4] = target: Dual specificity protein phosphatase 3 (Homo sapiens, UniProt P51452); test: VHR phosphatase inhibition, dose response, selectivity assay for STEP inhibitor project, biochemical (AID 602374); type: functional; settings: read-out: IC50_Mean
# Chain of Dual specificity protein phosphatase 3 (P51452 whole entry): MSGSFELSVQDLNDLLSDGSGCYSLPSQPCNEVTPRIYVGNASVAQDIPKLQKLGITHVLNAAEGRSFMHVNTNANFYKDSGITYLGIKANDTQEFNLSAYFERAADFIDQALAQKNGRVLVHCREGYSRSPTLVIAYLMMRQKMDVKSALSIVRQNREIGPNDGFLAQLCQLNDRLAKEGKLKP
# Hexokinase HKDC1 = target: T3, Hexokinase HKDC1 (Homo sapiens, UniProt Q2TB90); test: HKDC1 hexokinase activators, dose response, biochemical, W721R variant (AID 504730); type: functional
# T3 sequence (Q2TB90 whole entry): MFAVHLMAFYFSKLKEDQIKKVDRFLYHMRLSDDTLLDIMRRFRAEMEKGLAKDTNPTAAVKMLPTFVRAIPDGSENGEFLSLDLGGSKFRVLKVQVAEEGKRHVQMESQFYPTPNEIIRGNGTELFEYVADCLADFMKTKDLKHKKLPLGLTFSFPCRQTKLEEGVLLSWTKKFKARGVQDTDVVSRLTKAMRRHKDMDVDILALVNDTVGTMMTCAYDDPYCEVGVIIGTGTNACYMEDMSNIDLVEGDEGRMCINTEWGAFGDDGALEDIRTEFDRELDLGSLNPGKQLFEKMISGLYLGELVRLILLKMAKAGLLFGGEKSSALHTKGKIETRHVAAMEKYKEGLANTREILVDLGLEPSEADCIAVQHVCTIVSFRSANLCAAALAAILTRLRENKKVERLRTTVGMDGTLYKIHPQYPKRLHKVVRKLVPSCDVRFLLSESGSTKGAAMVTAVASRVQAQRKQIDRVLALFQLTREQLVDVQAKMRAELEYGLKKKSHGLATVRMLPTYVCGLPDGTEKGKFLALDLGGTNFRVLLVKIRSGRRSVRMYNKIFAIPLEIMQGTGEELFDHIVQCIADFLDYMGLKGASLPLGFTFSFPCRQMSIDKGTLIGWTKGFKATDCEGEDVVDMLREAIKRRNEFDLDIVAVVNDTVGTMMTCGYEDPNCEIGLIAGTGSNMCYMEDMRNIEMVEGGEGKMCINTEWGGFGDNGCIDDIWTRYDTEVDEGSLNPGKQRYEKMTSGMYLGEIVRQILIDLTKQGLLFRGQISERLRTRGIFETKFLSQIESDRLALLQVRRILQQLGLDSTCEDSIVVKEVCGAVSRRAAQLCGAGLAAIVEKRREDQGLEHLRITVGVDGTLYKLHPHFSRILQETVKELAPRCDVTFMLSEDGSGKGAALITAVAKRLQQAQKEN
# [5] = target: Tyrosine-protein phosphatase non-receptor type 5 (Homo sapiens, UniProt P54829); test: STEP phosphatase inhibitors, confirmation, biochemical, fluorescence intensity, uHTS hits (AID 602372); type: functional; settings: read-out: IC50_Mean
# Chain of Tyrosine-protein phosphatase non-receptor type 5 (P54829 whole entry): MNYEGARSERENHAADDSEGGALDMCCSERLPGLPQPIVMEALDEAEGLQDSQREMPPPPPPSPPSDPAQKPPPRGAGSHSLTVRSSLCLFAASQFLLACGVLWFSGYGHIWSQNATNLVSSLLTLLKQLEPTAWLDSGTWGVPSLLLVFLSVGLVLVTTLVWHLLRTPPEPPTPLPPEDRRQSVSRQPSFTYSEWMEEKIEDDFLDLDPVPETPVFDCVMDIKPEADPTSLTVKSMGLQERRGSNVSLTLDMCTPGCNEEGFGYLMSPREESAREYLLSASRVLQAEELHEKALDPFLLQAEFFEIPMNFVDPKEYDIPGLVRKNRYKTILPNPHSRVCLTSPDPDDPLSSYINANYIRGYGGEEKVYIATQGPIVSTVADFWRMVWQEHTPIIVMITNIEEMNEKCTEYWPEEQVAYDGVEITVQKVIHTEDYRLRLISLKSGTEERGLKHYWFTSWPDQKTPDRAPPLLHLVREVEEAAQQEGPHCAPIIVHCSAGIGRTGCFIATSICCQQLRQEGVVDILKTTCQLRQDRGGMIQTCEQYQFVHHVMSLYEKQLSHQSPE
# [6] = StAR promoter reporter inhibition counter-screen, dose response, counter-screen for LRH-1 inverse agonist project, cell-based, luminescence, luciferase reporter (AID 651969); type: functional
# Steroidogenic factor 1 = Steroidogenic factor 1 (Homo sapiens, UniProt Q13285); test: Counterscreen for inverse agonists of the liver receptor homolog-1 (LRH-1; NR5A2): Luminescence-based cell-based high throughput dose response assay to identify inverse agonists of the Steroidogenic Factor 1 Nuclear Receptor (SF1; NR5A1).; type: functional
# Chain of Steroidogenic factor 1 (Q13285 whole entry): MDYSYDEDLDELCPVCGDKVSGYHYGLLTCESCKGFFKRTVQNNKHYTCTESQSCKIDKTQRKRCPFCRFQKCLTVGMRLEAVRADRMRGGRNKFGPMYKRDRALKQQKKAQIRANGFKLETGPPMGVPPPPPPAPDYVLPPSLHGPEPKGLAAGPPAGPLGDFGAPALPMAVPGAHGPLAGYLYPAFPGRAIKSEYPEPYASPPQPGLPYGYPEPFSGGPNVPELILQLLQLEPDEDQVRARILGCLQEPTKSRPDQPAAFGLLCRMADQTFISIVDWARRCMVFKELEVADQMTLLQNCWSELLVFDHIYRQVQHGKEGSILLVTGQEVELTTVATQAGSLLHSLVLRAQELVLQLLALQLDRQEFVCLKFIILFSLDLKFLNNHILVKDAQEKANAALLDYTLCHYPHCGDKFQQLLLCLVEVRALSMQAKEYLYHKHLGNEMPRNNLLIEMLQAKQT
# [7] = target: Nuclear receptor subfamily 5 group A member 2 (Homo sapiens, UniProt O00482); type: functional, cell-based;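 further: HEK293T cells transfected with LRH-1 and a StAR promoter luciferase reporter; potency for inhibitors that lower LRH-1 driven reporter light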
# Chain of Nuclear receptor subfamily 5 group A member 2 (O00482 whole entry): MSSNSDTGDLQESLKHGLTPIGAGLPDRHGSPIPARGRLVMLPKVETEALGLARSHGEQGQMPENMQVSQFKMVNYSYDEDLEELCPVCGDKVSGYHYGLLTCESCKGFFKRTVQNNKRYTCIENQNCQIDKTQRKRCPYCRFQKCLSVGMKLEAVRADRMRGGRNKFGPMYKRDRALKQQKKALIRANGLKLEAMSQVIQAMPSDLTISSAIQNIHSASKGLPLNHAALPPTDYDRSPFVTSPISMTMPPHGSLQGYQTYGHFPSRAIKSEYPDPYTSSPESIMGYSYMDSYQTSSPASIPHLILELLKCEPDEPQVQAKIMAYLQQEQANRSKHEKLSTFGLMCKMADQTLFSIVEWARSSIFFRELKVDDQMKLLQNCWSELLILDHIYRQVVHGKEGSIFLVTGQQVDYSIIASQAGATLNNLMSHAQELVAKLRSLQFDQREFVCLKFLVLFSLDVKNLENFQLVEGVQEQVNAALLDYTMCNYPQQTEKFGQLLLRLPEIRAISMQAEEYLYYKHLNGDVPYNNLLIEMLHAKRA
# [8] = miR-122 activators in hepatoma reporter cells, dose response, cell-based, Huh7 psiCHECK-miR122, Renilla luciferase, cherry-picked (AID 651956); type: functional;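 further: huh7 hepatoma cells stably carrying a psiCHECK-2 miR-122 sensor plasmid; renilla luciferase signal reporting endogenous miR-122 activity after 48 h compound exposure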
# [9] = HEK293T cell cytotoxicity, dose response, cytotoxicity control for HIV Vif inhibitor project, cherry-picks (AID 652208); type: functional, cell-based
# [10] = LMP1-driven NF-kB reporter inhibition, dose response, cell-based, luciferase reporter, luminescence, dry powder, set 2 (AID 624376); type: functional
# [11] = non-specific cell cytotoxicity, dose response, cytotoxicity control for PAX8 inhibitor project, plate reader, dry powder samples (AID 743021); type: functional, cell-based
# [12] = NIH:OVCAR-3 ovarian cancer cell cytotoxicity, dose response, PAX8 inhibitor project, plate reader, dry powder samples (AID 743044); type: functional, cell-based
# Paired box protein Pax-8 = Paired box protein Pax-8 (Homo sapiens, UniProt Q06710); test: inhibitors of PAX8-driven TPO luciferase reporter, dose response, RMG-I cells, cherry-pick (AID 687027); type: functional, cell-based;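 further: luciferase reporter driven by Pax8 target thyroperoxidase promoter measured by SteadyGlo luminescence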
# Chain of Paired box protein Pax-8 (Q06710 whole entry): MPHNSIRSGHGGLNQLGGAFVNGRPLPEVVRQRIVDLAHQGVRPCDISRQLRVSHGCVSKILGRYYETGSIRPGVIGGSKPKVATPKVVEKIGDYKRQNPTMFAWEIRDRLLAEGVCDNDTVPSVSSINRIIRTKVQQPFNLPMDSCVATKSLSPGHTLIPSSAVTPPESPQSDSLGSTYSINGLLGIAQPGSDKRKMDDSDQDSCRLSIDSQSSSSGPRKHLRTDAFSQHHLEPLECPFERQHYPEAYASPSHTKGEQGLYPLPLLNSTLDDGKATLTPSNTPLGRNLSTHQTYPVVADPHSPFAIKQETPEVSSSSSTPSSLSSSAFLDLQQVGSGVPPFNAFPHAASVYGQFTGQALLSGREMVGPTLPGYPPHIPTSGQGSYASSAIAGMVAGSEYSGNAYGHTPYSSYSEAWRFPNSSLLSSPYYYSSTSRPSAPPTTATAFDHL
# [13] = A2780 ovarian cancer cell cytotoxicity, dose response, cytotoxicity control, plate reader, dry powder samples (AID 743046); type: functional, cell-based
# Albumin = Albumin (Bos taurus, UniProt P02769); test: Counterscreen for inhibitors of T-cell receptor (TCR)-CD3 interaction: Fluorescence-based biochemical high throughput dose response assay to identify inhibitors of T-cell receptor (TCR)-CD3 interaction using a TAMRA-labeled BSA probe.; type: functional
# Chain of Albumin (P02769 whole entry): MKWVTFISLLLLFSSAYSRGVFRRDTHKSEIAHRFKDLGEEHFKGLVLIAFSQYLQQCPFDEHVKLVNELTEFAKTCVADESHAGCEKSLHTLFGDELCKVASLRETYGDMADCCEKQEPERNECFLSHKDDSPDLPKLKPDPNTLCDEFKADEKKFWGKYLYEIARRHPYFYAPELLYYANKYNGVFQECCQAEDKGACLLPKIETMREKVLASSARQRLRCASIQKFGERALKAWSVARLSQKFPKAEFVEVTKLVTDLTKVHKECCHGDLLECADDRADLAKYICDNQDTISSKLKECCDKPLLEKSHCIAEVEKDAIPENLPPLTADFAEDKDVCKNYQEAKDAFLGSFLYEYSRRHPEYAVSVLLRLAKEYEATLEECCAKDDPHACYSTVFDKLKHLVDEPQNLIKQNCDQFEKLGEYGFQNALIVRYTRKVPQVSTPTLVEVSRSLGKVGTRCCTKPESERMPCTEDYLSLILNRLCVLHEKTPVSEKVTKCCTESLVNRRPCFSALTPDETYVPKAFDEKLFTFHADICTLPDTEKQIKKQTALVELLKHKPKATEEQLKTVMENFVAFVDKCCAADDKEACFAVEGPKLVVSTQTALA
# [14] = target: T4, DNA repair protein RAD52 homolog (Homo sapiens, UniProt P43351); type: functional, biochemical
# T4 sequence (P43351 whole entry): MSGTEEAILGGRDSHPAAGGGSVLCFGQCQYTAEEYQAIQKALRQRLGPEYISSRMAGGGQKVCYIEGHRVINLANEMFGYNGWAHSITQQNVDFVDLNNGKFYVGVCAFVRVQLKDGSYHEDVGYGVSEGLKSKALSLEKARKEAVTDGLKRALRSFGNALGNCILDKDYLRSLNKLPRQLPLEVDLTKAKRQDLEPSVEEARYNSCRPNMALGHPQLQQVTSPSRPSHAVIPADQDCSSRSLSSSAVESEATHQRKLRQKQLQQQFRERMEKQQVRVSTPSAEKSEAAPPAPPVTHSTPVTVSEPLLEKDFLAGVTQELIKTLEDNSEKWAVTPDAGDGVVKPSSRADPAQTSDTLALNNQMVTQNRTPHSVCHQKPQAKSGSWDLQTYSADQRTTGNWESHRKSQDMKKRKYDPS
smiles,measurement,setting,value
CCOC(=O)c1c(NC(C)=O)sc2c(O)c(CN3CCN(CC)CC3)ccc12,EC50,[1],55.8 µM (active)
same,AC50,[2],32.1 µM (active)
CC(=NNC(=S)N1CC2CCC(CC2)C1)c1cccc(C)n1,EC50,Hexokinase-1,> 80 µM (inactive)
same,IC50,[3],6.06 µM (active)
same,IC50,[4],7.77 µM (active)
same,EC50,Hexokinase HKDC1,> 80 µM (inactive)
same,IC50,[5],> 80 µM (inactive)
COc1ccc(Nc2nc(NCCN3CCOCC3)nc(Nc3ccc(OC)cc3)n2)cc1,IC50,[6],12 µM (inactive)
same,IC50,Steroidogenic factor 1,4.32 µM (active)
same,IC50,[7],5.3 µM (active)
C[C@@H]1CN([C@@H](C)CO)S(=O)(=O)c2ccc(-c3ccccc3)cc2O[C@@H]1CN(C)C(=O)c1ccc2c(c1)OCO2,AC50,[8],16.3 µM (active)
COc1ccc(-c2coc3c(C(=O)Nc4cccc(C(C)=O)c4)cccc23)c(C)c1,AC50,[9],> 52 µM (inactive)
COc1cccc(S(=O)(=O)N(C)C[C@H]2Oc3cc(C4=CCCCC4)ccc3S(=O)(=O)N([C@@H](C)CO)C[C@@H]2C)c1,AbsAC35,[10],64.1 µM
C[C@H](CO)N1C[C@H](C)[C@H](CN(C)C(=O)[C@H](Cc2ccccc2)N(C)C)OCc2ccccc2-c2c(n(C)c3ccccc23)C1=O,AC50,[11],36.2 µM (active)
same,AC50,[12],45.4 µM (active)
same,AC50,Paired box protein Pax-8,16.4 µM (active)
same,AC50,[13],12.6 µM (active)
CNC(=S)N/N=C/c1cc(Br)cc(Br)c1O,IC50,Albumin,> 94.1 µM (inactive)
CCOC(=O)c1cnc2ccc(OCC)cc2c1NCCCN1CCOCC1,AC50,[2],11.7 µM (active)
same,AC50,[14],11.2 µM (active)
